Experimental data from patent EP1113726B1, “USE OF NEOHESPERIDIN DIHYDROCHALCONE FOR THE MANUFACTURE OF A MEDICAMENT FOR PREVENTING OR TREATING ELEVATED BLOOD LIPID LEVEL-RELATED DISEASES” (Korea Research Institute of Bioscience and Biotechnology, priority 1998, dated 2000).

Legend:
[1] = system: New Zealand White rabbits; test: Chemical analysis of blood of cholesterol-fed rabbits; assay type: in vivo
Method: (§1) 30 three-month-old New Zealand White rabbits(Yeonam Horticulture and Animal Husbandry College, Korea), each weighing about 2.5 to 2.6 kg, were raised under a condition of temperature 20±2°C, relative humidity 55±5 %, and photoperiod 12L/12D. The rabbits were divided into 3 groups and 3 groups of rabbits were fed with 3 different diets, i.e., RC4 diet(Oriental Yeast Co., Japan) containing 1 % cholesterol(Control group); 1 % cholesterol plus 1 mg/kg Lovastatin®(Merck, U.S.A.)(Lovastatin group); and 1 % cholesterol plus 0.05 % neohesperidin dihydrochalcone(Neohesperidin dihydrochalcone group), respectively. RC4 diet comprises 7.6 % moisture, 22.8 % crude protein, 2.8 % crude fat, 8.8 % crude ash, 14.4 % crude cellulose and 43.6 % soluble nitrogen-free substances. Neohesperidin dihydrochalcone was purchased from Sigma Chemical Co.(St. Louis, MO).
(§2) The rabbits were fed for 6 weeks while being allowed free access to the diets and water.
After six weeks, the rabbits were anesthetized with an intramuscular injection of ketamine (50 mg/kg) in the femoral region and sacrificed.

[2] = system: New Zealand White rabbits; test: Microscopic grading of abnormal fat-containing cells in the liver of cholesterol-fed rabbits (fatty liver); assay type: in vivo; details: 1 % cholesterol diet for 6 weeks plus 1 mg/kg Lovastatin or 0.05 % neohesperidin dihydrochalcone
Method: as §1, §2
In order to evaluate the effects of feeding a high cholesterol diet with neohesperidin dihydrochalcone on liver tissues, the liver specimens taken from the sacrificed rabbit in Step 2 of Example 6 were treated in accordance with the procedure disclosed in Fogt F. and Nanji A., Toxicology and Applied Pharmacology, 136, 87-93, 1996; and Keegan A., et al., Journal of Hepatology 23: 591-600, 1995, and observed under a microscope to be classified into four grades, i.e., 1+(0-25%), 2+(26-50%), 3+(51-75), 4+(76-100%) based on the proportion of abnormal fat-containing cells around the central vein in the liver acinus.
Figs. 2A, 2B and 2C present the microscopic features of the livers of the rabbits administered with 1% cholesterol; 1% cholesterol plus 1 mg/kg Lovastatin®; 1% and cholesterol plus 0.05% neohesperidin dihydrochalcone, respectively.

Human = test: Effect of administration to a human on plasma lipid metabolism; assay type: in vivo; details: two men in their mid-fifties, daily oral dose of 10mg/kg, capsule, 60 days, before versus after
Method: Two men in their mid-fifties were administered with a daily oral dose of 10mg/kg of neohesperidin dihydrochalcone in the form of a capsule for 60 days. The plasma cholesterol and neutral lipid(triglyceride) contents were determined before and after the administration.

ICR female mice = details: mouse, oral, single dose of 1,000 mg/kg
Method: 12 seven-week-old, specific pathogen-free ICR female mice, six female mice each weighing about 25 to 29 g and six male mice each weighing about 34 to 38 g, were kept under an environment of 22±1°C, 55±5 % relative humidity and 12L/12D photoperiod. Fodder(Cheiljedang Co., mouse and rat fodder) and water were sterilized and fed to the mice.
Neohesperidin dihydrochalcone purchased from Aldrich-Sigma Chemical Co. (St. Louis, MO, U.S.A) was dissolved in 0.5 % Tween 80 to a concentration of 100 mg/ml, and the solution was orally administered to the mice in an amount of 0.2 ml per 20 g of mouse body weight. […] Further, on the 10th day, the mice were sacrificed and the internal organs were visually examined.

ACAT = ACAT assay on liver microsomes of the diet-fed rats; assay type: biochemical; details: ex vivo: liver microsomes of rats fed 1 % cholesterol plus 0.05 % neohesperidin dihydrochalcone for six weeks, versus Control group
Method: To determine the effect of feeding neohesperidin dihydrochalcone to rats on the activity of ACAT, microsomes were separated from liver tissues to be used as an enzyme source.
1 g each of the livers taken from each group of rats of Example 2 was homogenized in 5 ml of homogenization medium(0.1 M KH2PO4, pH 7.4, 0.1 mM EDTA and 10 mM β-mercaptoethanol). The homogenate was centrifuged at 3,000xg for 15 min. at 4°C and the supernatant thus obtained was centrifuged at 15,000xg for 15 min. at 4°C to obtain a supernatant. The supernatant was put into an ultracentrifuge tube(Beckman) and centrifuged at 100,000xg for 1 hour at 4°C to obtain microsomal pellets, which were then suspended in 3 ml of the homogenization medium and centrifuged at 100,000xg for 1 hour at 4°C. The pellets thus obtained were suspended in 1 ml of the homogenization medium. The protein concentration of the resulting suspension was determined by Lowry's method and then adjusted to 4 to 8 mg/ml. […]
200 µl of the resulting supernatant was put in a scintillation bottle and 4 ml of scintillation fluid(Lumac) was added thereto. The mixture was assayed for radioactivity with 1450 Microbeta liquid scintillation counter(Wallacoy, Finland). ACAT activity was calculated as picomoles of cholesteryl oleate synthesized per min. per mg protein(pmoles/min/mg protein).

Sprague-Dawley rats = test: Plasma total cholesterol, HDL-cholesterol and neutral lipid levels in rats fed a high-cholesterol diet; details: 1 % cholesterol diet plus 0.05 % neohesperidin dihydrochalcone, six weeks
[3] = rabbit serum, 1 % cholesterol diet for 6 weeks plus 1 mg/kg Lovastatin or 0.05 % neohesperidin dihydrochalcone
[4] = rabbits, 1 % cholesterol plus 0.05 % neohesperidin dihydrochalcone, 6 weeks

SMILES: COc1ccc(CCC(=O)c2c(O)cc(O[C@@H]3O[C@H](CO)[C@@H](O)[C@H](O)[C@H]3O[C@@H]3O[C@@H](C)[C@H](O)[C@@H](O)[C@H]3O)cc2O)cc1O [Neohesperidin dihydrochalcone]
- GOT [1, 3]: 53 (±23) IU/1
- GPT [1, 3]: 42 (±20) IU/l
- Total-C [1, 3]: 1293 (±89) mg/dl
- γ-GTP [1, 3]: 7.8 (±5) IU/l
- reducing serum GOT and GPT levels, compared with Lovastatin® ([1]; rabbits, 1 % cholesterol diet, 6 weeks): more effective
- serum GOT level lowered, as compared to the Control group [1, 4]: 31%
- serum GPT level lowered, as compared to the Control group [1, 4]: 35%
- B: Proportion of abnormal fat-containing cells ([2]; rabbit liver, cells around the central vein, mean of grades 1+ to 4+): 2.7 (±0.3)
- microscopic features of the liver (Figs. 2B, 2C) ([2]; rabbits): almost all liver cells are of a normal shape
- plasma cholesterol content reduced (Human): 20%
- plasma neutral lipid(triglyceride) content reduced (Human): 15%
- survival at day 10 (ICR female mice): All the mice were alive
- pathological abnormality at autopsy (ICR female mice; autopsy on the 10th day): did not develop any pathological abnormality
- %Inhibition on ACAT activity (ACAT): 20%
- (HDL-C)/(Total-C (%)) (Sprague-Dawley rats): 16%
- neutral lipid content reduced, as compared with Control group (Sprague-Dawley rats): 9%
- total plasma cholesterol level reduced, as compared with Control group (Sprague-Dawley rats): 15%
- HDL-C (Sprague-Dawley rats; n=10): 19 ± 3 mg/dL
- TG (Sprague-Dawley rats; n=10): 52 ± 8 mg/dL
- Total-C (Sprague-Dawley rats; n=10): 115 ± 10 mg/dL
